Test results reported in US11053204B2, “Pyrimidinyloxy benzene derivatives as herbicides” (FMC Corporation, priority 2015, dated 2021).

How the values were obtained:
Assay in all cases: Test A postemergence, visual injury rating
Type in all cases: in vivo
Details in all cases: 0 is no effect, 100 is complete control
[1] = tested on: Italian ryegrass (Lolium multiflorum)
Procedure, shortened: (§1)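 Pre- and postemergence greenhouse screen. Soil: loam + sand. Spray carrier: solvent mixture, non-phytotoxic, with surfactant. Post timing at 1–2 leaves, height 2–10 cm. Readout: visual injury on a 0–100 scale roughly 10 days after application, untreated plants as reference.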

[2] = tested on: barnyardgrass (Echinochloa crus-galli)
Procedure, shortened: as §1

[3] = tested on: giant foxtail (Setaria faberii)
Procedure, shortened: as §1

[4] = tested on: galium (catchweed bedstraw, Galium aparine)
Procedure, shortened: as §1

[5] = tested on: corn (Zea mays)
Procedure, shortened: as §1

[6] = tested on: kochia (Kochia scoparia)
Procedure, shortened: as §1

[7] = tested on: pigweed (Amaranthus retroflexus)
Procedure, shortened: as §1

[8] = tested on: blackgrass (Alopecurus myosuroides)
Procedure, shortened: as §1

[9] = tested on: ragweed (common ragweed, Ambrosia elatior)
Procedure, shortened: as §1

[10] = tested on: wheat (Triticum aestivum)
Procedure, shortened: as §1

Structure (SMILES)	Ryegrass, Italian plant response rating (0 to 100 scale) ([1]; 125 g ai/ha)	Ryegrass, Italian plant response rating (0 to 100 scale) ([1]; 500 g ai/ha)	Barnyardgrass plant response rating (0 to 100 scale) ([2]; 125 g ai/ha)	Barnyardgrass plant response rating (0 to 100 scale) ([2]; 500 g ai/ha)	Foxtail, Giant plant response rating (0 to 100 scale) ([3]; 125 g ai/ha)	Foxtail, Giant plant response rating (0 to 100 scale) ([3]; 500 g ai/ha)	Galium plant response rating (0 to 100 scale) ([4]; 125 g ai/ha)	Galium plant response rating (0 to 100 scale) ([4]; 500 g ai/ha)	Corn plant response rating (0 to 100 scale) ([5]; 125 g ai/ha)	Corn plant response rating (0 to 100 scale) ([5]; 500 g ai/ha)	Kochia plant response rating (0 to 100 scale) ([6]; 125 g ai/ha)	Kochia plant response rating (0 to 100 scale) ([6]; 500 g ai/ha)	Pigweed plant response rating (0 to 100 scale) ([7]; 125 g ai/ha)	Pigweed plant response rating (0 to 100 scale) ([7]; 500 g ai/ha)	Blackgrass plant response rating (0 to 100 scale) ([8]; 125 g ai/ha)	Blackgrass plant response rating (0 to 100 scale) ([8]; 500 g ai/ha)	Ragweed plant response rating (0 to 100 scale) ([9]; 125 g ai/ha)	Ragweed plant response rating (0 to 100 scale) ([9]; 500 g ai/ha)	Wheat plant response rating (0 to 100 scale) ([10]; 125 g ai/ha)	Wheat plant response rating (0 to 100 scale) ([10]; 500 g ai/ha)
N#Cc1cccc(Oc2ncc(Cl)cn2)c1C(=O)OCCC(F)(F)F [Compound 30]	0	0	0	20	60	100	60	100	30	70	100	100	100	100	10	30	0	0	0	30
C=C(Br)COC(=O)c1c(Br)cccc1Oc1ncc(Cl)cn1 [Compound 61]	20	80	100	100	60	100	60	100	20	40			40	100	30	100	10	30	0	30
